Measurements from patent publication US6541463B1, “Inhibitors of type 5 and type 3 17β-hydroxysteroid dehydrogenase and methods for their use” (Endorecherche, Inc., priority 1998, dated 2003).

Tests used:
[1] = tested on: ZR-75-1 cells; assay: Antiestrogenic activity: inhibition of E2-induced proliferation of ZR-75-1 cells; assay type: cell-based, human; parameters: ZR-75-1 Activity, E2 / ZR-75-1 Activity E2 E^−6: unit not given here
Protocol: The manner in which the inhibition is determined is described in “Other Tests; C-Estrogenic/Antiestrogenic Activity”. Lower numbers are desirable. ND means that a determination was not done.
Estrogenic/antiestrogenic activity of some preferred compounds has been measured using the […] human breast cancer cell line as described in more detail below.
All media and medium supplments were purchased from Sigma. Cells were subcultured weekly by treatment with a pancreatic solution containing EDTA (0.2 g/L). The cell cultures used for the experiments herein describied were between passages 89 and 94.
Cells in their logarithmic growth phase were harvested, briefly centrifuged, and resuspended in RPMI 1640. Cells were then plated in triplicate in LIMBRO 24-well plastic culture plates (2 cm^2/well). Since plating density influences the effect of hormones on ZR-75-1 cell growth, cells were plated at a density of 1×10^4 cells/well. […] Control cultures received the ethanol vehicle only. Cells were then allowed to grow at 37° C. for 10 days with medium changes (of identical composition) every 2 days.
After E2 and/or antiestrogen treatment, cells were harvested by addition of 0.5 ml of a pancreatin solution (Sigma) for 5-10 min at 37° C. before addition of 0.5 mnl of RPMI 1640 containing 5% dextran coated […] bovine serum in order to block enzymatic action. Cell number (0.10 ml aliquot) was determined by measurement of DNA content as previously described (Simard et al., Endocrinology 126: 3223-3231,1990).

[2] = In vivo assay of oral bioavailability (plasma AUC 0-7 h by LCMS/MS); parameters: species or system male Sprague Dawley rats; details: for AUC(0-t): male, Sprague-Dawley [Crl:CD(SD)Br], 0.5 mg
Protocol: In column 1, the oral bioavailability of preferred type 5 inhibitors, expressed in ng/mL.h, was determined as described below in “Other Tests, A-In Vivo Assays of Bioavailability of Human Type 5 17β-HSD Inhibitors”. Higher number are desirable. ND means that a determination was not done.
The measurements at various time intervals were for values greater than or equal to 1.0 ng/mL and less than or equal to 50 ng/mL.
Male Sprague-Dawley rats [Crl:CD(SD)Br] weighing 275-350 g were obtained from Charles-River Canada Inc. and housed 2 per cage during the acclimation period and individually during the study period. The animals were maintained under a regimen of 12 hours light: 12 hours dark (lights on at 08:00). Animals received certified Rodent feed (Lab Diet #5002, pellets) and tap water ad libitum. Rats were fasted (access to water only) starting on the evening prior to dosing.
Each compound to be tested was administered to three animals as a suspension in 0.4% methylcellulose by oral gavage at a dose of 0.5 mg/rat (1.0 ml/rat). Four to eight new compounds were tested each day and one group of animals received megestrol acetate (MGA) under the same conditions on each dosing day as a reference. […] Blood samples were immediately transferred into a refrigerated 0.75 ml Microtainer containing EDTA and kept in an ice-water bath until centrifugation at 3000 rpm for 10 minutes. Plasma separation was performed rapidly (less than 50 minutes) after blood collection. One aliquot of 0.25 ml of plasma was then transferred into a borosilicate tube (13×100) and was rapidly frozen on dry-ice. Plasma samples were kept at −80° C. until measurement of plasma concentration of the inhibitor(s) by LCMS/MS.
Aliquots of rat plasma (0.250 mL) were transferred to 13×100 mm borosilicate tubes. Water (1.0 mL) and internal standard solution (0.1 mL) were added to each sample and vortexed for 2 min. A mixture of N-butyl chloride and acetone (v:v, 7:3) (3 mL) was added to each sample and vortexed for 2 min. This step was repeated and the combined organic phases were evaporated to dryness under nitrogen in a Turbo Vap evaporator at 35° C. The residue was reconstituted with 1 mL of methanol and evaporated in a Turbo Vap evaporator at 35° C. The final extract was reconstituted into 0.1 mL of methanol/water (v:v, 75:25) and then transferred into a conical vial for injection into the mass spectrometer.
The assay procedure was performed by analyzing, in duplicate, rat plasma samples spiked at six different Type 5 inhibitor concentrations (1, 2, 5, 10, 20 and 50 ng/mL). The lower limit of quantitation (LOQ) was established at 1.0 ng/mL. Values lower than 1.0 ng/mL were expressed as below limit of quantification (BLQ). […]

[3] = Table 4′, E2-induced proliferation, 3E^−8

Which “ZR-75-1 Activity, E2 3E^−8” value ([1]; with E2, 3E^−8) does the source give for `CC12C=CC(=O)C=C1C=CC1C2CCC2(C)C(=O)C3(CCCCC3)CC12` (centres unmarked) [CS-204] here?
The value was 0.

What about the “ZR-75-1 Activity E2 E^−6” value ([1]; with E2, E^−6) of the same compound?
The value was −25.

Which AUC(0-t) ([2]; Table 4′, oral, rat plasma) does the source give for `CC1(C)CCC2(CCC3C4CCc5ccccc5C4CCC32C)OC1=O` (centres unmarked) [CS-224] here?
The AUC(0-t) was 18 ± 3.5 ng·h/mL.

What about the “ZR-75-1 Activity, E2 3E^−8” value [1, 3] of the same compound?
Its value is 13%.

With `CCC(=O)O[C@]1(C(C)=O)CCC2C3C=C(C)C4=CC(=O)C[C@H](C)[C@]4(C)C3CC[C@@]21C` (some centres unmarked) [CS-243] as the compound, how does the AUC(0-t) ([2]; rat, plasma, po) read?
The AUC(0-t) was 11 ± 2.5 ng·h/mL.

What about the “ZR-75-1 Activity, E2” value ([1]; E2) of the same compound?
Its value is −57.

What about the “ZR-75-1 Activity, E2” value ([1]; E2, E^−8) of the same compound?
The value was −60.

For `CCCC(=O)OC1(C(C)=O)CCC2C3C=C(C)C4=CC(=O)CC(C)C4(C)C3CCC21C` (centres unmarked) [CS-245], which AUC(0-t) ([2]; rat, plasma, po) is on record?
Its AUC(0-t) is 18 ± 5 ng·h/mL.

With `C[C@]12CCC3c4ccc(O)cc4CCC3C1CC[C@@]21CCCC(=O)O1` (stereo partly drawn) [EM-919, 1,3,5(10)-estratrien-3-ol-17(R)-spiro-2′(6′-oxo)tetrahydropyran] as the compound, how does the AUC(0-t) ([2]; Table 4′, oral, rat plasma) read?
Its AUC(0-t) is 4.8 ± 0.8 ng·h/mL.

And the “ZR-75-1 Activity, E2 3E^−8” value [1, 3]?
Its value is −18%.

Which “Oral Bioavailability AUC 0-7h” value ([2]; AUC 0-7h) does the source give for `COC(=O)CCCC(=O)O[C@]1(C(C)=O)CC[C@H]2[C@@H]3C=C(C)C4=CC(=O)CC[C@]4(C)[C@H]3CC[C@@]21C` [EM-1007, 6-Methyl-4,6-pregnadien-17α-ol-3,20-dione 4′-Carbomethoxybutyrate] here?
The value was 16.4 ng·h/mL.

What about the “ZR-75-1 Activity, E2” value ([1]; E2) of the same compound?
The value was −52.

And the “ZR-75-1 Activity, E2” value ([1]; E2, E^−8)?
The value was −41.

With `CC1CCC2(CCC3C4CCc5ccccc5C4CCC32C)OC1=O` (centres unmarked) [EM-1025] as the compound, how does the “ZR-75-1 Activity, E2 3E^−8” value [1, 3] read?
Its value is 0%.

With `C[C@]12CCC3c4cc([N+](=O)[O-])c(O)cc4CCC3C1CC[C@@]21CCCC(=O)O1` (stereo partly drawn) [EM-1124, 2-Nitro-1,3,5(10)-estraetriene-3-ol-17(R)-spiro-2′-(6′-oxo)tetrahydropyran] as the compound, how does the AUC(0-t) ([2]; rat, plasma, po, Table 4′, cell marked (8 h)) read?
The AUC(0-t) was 5.1 ± 1 ng·h/mL.

And the “ZR-75-1 Activity, E2 3E^−8” value [1, 3]?
The value was 0%.

Which results are given for `CC1(C)CCC2(CCC3C4CCc5cc(O)c([N+](=O)[O-])cc5C4CCC32C)OC1=O` (centres unmarked) [EM-1125-CS]?
AUC(0-t) ([2]; Table 4′, oral, rat plasma): 95 ± 6.5 ng·h/mL; ZR-75-1 Activity, E2 3E^−8 [1, 3]: 0%

With `CC1CCC2(CCC3C4CCc5cc(O)c([N+](=O)[O-])cc5C4CCC32C)OC1=O` [EM-1126, 2-Nitro-1,3,5(10)-estratrien-3-ol-17(R)-spiro-2′-(5′-methyl-6′-oxo)tetrahydropyran] as the compound, how does the “ZR-75-1 Activity, E2 3E^−8” value [1, 3] read?
Its value is 0%.

For `CC1CCC2(CCC3C4CCc5cc(O)c([N+](=O)[O-])cc5C4CCC32C)OC1=O` [EM-1131, 2-Nitro-1,3,5(10)-estratrien-3-ol-17(R)-spiro-2′-(5′-methyl-6′-oxo)tetrahydropyran], which AUC(0-t) ([2]; Table 4′, oral, rat plasma) is on record?
The AUC(0-t) was 124 ± 27 ng·h/mL.

And the “ZR-75-1 Activity, E2 3E^−8” value [1, 3]?
The value was 0%.

Which AUC(0-t) ([2]; rat, plasma, po) does the source give for `CC(=O)O[C@]1(C(=O)N(C)C)CCC2C3C=C(C)C4=CC(=O)CC[C@]4(C)C3CC[C@@]21C` (some centres unmarked) [EM-1159] here?
The AUC(0-t) was 452 ± 170 ng·h/mL.

For `CCCCN(C)C(=O)[C@@]1(OC(C)=O)CCC2C3C=C(C)C4=CC(=O)CC[C@]4(C)C3CC[C@@]21C` (some centres unmarked) [EM-1165], which AUC(0-t) ([2]; rat, plasma, po) is on record?
Its AUC(0-t) is 24 ± 3.6 ng·h/mL.

For `CC(=O)[C@@]1(OC(=O)CCCCF)CCC2C3C=C(C)C4=CC(=O)CC[C@]4(C)C3CC[C@@]21C` (some centres unmarked) [EM-1195-CS], which AUC(0-t) ([2]; rat, plasma, po) is on record?
The AUC(0-t) was 31 ± 5.5 ng·h/mL.

And the “ZR-75-1 Activity, E2” value ([1]; E2)?
Its value is −40.

What about the “ZR-75-1 Activity, E2” value ([1]; E2, E^−8) of the same compound?
The value was −38.

With `CCS(=O)(=O)Oc1ccc2c(c1)CCC1C2CCC2(C)C1CCC21CCC(C)(C)C(=O)O1` (centres unmarked) [EM-1364-CS] as the compound, how does the “ZR-75-1 Activity, E2 3E^−8” value [1, 3] read?
The value was −12%.

For `COCCOc1ccc2c(c1)CCC1C2CCC2(C)C1CCC21CCC(C)(C)C(=O)O1` [EM-1368-CS, 3-Methoxyethoxy-1,3,5(10)-estratrien-17(R)-spiro-2′-(5′,5′-dimethyl-6′-oxo)-tetrahydropyran], which “ZR-75-1 Activity, E2 3E^−8” value [1, 3] is on record?
Its value is 0%.

With `CCOc1ccc2c(c1)CCC1C2CC[C@@]2(C)C1CC[C@@]21CCC(C)(C)C(=O)O1` (stereo partly drawn) [EM-1369, 3-Ethoxy-1,3,5(10)-estratrien-17(R)-spiro-2′-(5′,5′-dimethyl-6′-oxo)-tetrahydropyran] as the compound, how does the “ZR-75-1 Activity, E2 3E^−8” value [1, 3] read?
The value was “+18%”.

For `COc1ccc2c(c1)CCC1C2CCC2(C)C1CCC21CCC(C)(C)C(=O)O1` (centres unmarked) [EM-1370], which “ZR-75-1 Activity, E2 3E^−8” value [1, 3] is on record?
The value was 0%.

For `CC1(C)CC[C@@]2(CCC3C4CCc5cc(C(N)=O)ccc5C4CCC32C)OC1=O` (some centres unmarked) [EM-1404], which AUC(0-t) ([2]; Table 4′, oral, rat plasma) is on record?
The AUC(0-t) was 3840 ± 197 ng·h/mL.

And the “ZR-75-1 Activity, E2 3E^−8” value [1, 3]?
Its value is 0%.

For `COc1cc2c(cc1C(F)(F)F)C1CCC3(C)C(CCC34CCC(C)(C)C(=O)O4)C1CC2` [EM-1409, 3-Methoxy-2-trifluoromethyl-1,3,5(10)-estratrien-17(R)-spiro-2′-(5′,5′-dimethyl-6′-oxo)tetrahydropyran], which AUC(0-t) ([2]; Table 4′, oral, rat plasma) is on record?
Its AUC(0-t) is 36 ± 13 ng·h/mL.

Which AUC(0-t) ([2]; Table 4′, oral, rat plasma) does the source give for `CC1(C)CCC2(CCC3C4CCc5cc(O)c(C#N)cc5C4CCC32C)OC1=O` (centres unmarked) [EM-01645] here?
The AUC(0-t) was 52 ± 3 ng·h/mL.

For `CC12CCC3c4ccc(O)cc4CCC3C1CCC21CC=CC(=O)O1` [PB-132-140, 3-hydroxy-1,3,5(10)-estratrien-17(R)-spiro-2′-(4′,5′-dihydro-6′-oxo)pyran], which “ZR-75-1 Activity, E2 3E^−8” value [1, 3] is on record?
Its value is 0%.

With `CC1CC(=O)OC2(CCC3C4CCc5cc(O)ccc5C4CCC32C)C1` [PB-132-142, 3-Hydroxy-1,3,5(10)-estratrien-17(R)-spiro-2′-(4′-methyl-6′-oxo)tetrahydropyran] as the compound, how does the “ZR-75-1 Activity, E2 3E^−8” value [1, 3] read?
Its value is 0%.

Which “ZR-75-1 Activity, E2 3E^−8” value [1, 3] does the source give for `COC(=O)C1CCC2(CCC3C4CCc5cc(O)ccc5C4CCC32C)OC1=O` [PB-132-146, 3-Hydroxy-1,3,5(10)-estratrien-17(R)-2′-(5′-methoxycarbonyl-6′-oxo)tetrahydropyran] here?
The value was 0%.

Which “ZR-75-1 Activity, E2 3E^−8” value [1, 3] does the source give for `C=CCC1CCC2(CCC3C4CCc5cc(O)ccc5C4CCC32C)OC1=O` [PB-132-152, 3-Hydroxy-1,3,5(10)-estratrien-17(R)-2′-(5′-allyl-6′-oxo)tetrahydropyran] here?
Its value is −11%.

What does the source list for `CC(=O)O[C@]1(C(C)=O)CCC2C3C=C(C)C4=CC(=O)CC[C@]4(C)C3CC[C@@]21C` (some centres unmarked) [megestrol acetate, reference compound]?
AUC(0-t) ([2]; rat, plasma, po): 92 ± 17 ng·h/mL; ZR-75-1 Activity, E2 ([1]; E2): −81; ZR-75-1 Activity, E2 ([1]; E2, E^−8): −70
